In one test the target is T1, CCK receptor (pancreas) (Rattus norvegicus, UniProt P30551).
T1 construct: The whole pancreas was dissected free of fat tissue and was homogenized; from tissue; host or cells: rat pancreas membrane homogenate
T1 sequence (P30551 1-444): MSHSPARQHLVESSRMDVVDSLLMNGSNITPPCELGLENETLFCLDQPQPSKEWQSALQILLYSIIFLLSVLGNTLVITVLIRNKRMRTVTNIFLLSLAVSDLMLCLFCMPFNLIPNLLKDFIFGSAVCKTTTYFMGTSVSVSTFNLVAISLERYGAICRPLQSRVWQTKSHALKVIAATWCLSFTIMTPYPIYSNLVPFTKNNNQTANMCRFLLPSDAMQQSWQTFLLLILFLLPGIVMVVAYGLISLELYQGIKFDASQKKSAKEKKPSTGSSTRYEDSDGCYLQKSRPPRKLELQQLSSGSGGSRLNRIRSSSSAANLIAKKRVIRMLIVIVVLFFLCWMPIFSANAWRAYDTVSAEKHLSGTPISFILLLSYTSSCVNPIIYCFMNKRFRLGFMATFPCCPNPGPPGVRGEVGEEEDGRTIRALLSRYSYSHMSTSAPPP
The test can be described thus: biochemical. Format: binding. Conditions: rat pancreas membranes; for IC50: 50 pM 125I-CCK-8, 25°C 2 hours. Here is the method: CCK-8 sulphated was radiolabelled with ¹²⁵I-Bolton Hunter reagent (2000 Ci/mmole). Receptor binding was performed according to Chang and Lotti (Proc. Natl. Acad. Sci. 83, 4923-4926, 1986) with minor modifications.
Male Sprague-Dawley rats (150-200g) were sacrificed by decapitation. The whole pancreas was dissected free of fat tissue and was homogenized in 25 volumes of ice-cold 10 mM N-2-hydroxyethyl-piperazine-N′-2-ethane sulphonic acid (HEPES) buffer with 0.1% soya bean trypsin inhibitor (pH 7.4 at 25°C) with a Kinematica Polytron. The homogenates were centrifuged at 47,800 g for 10 min. Pellets were resuspended in 10 volumes of binding assay buffer (20mM (HEPES)), 1mM ethylene glycol-bis-(β-aminoethylether-N,N′-tetraacetic acid) (EGTA), 5mM MgCl₂, 150 mM NaCl, bacitracin 0.25 mg/ml, soya bean trypsin inhibitor 0.1 mg/ml, and bovine serum albumin 2 mg/ml pH 6.5 at 25°C) using a Teflon (trademark) homogenizer, 15 strokes at 500 rpm. The homogenate was further diluted in binding assay buffer to give a final concentration of 0.5 mg original wet weight/1 ml buffer. […] All assays were run in duplicate. The reaction mixtures were incubated at 25°C for 2 hours and the reaction terminated by rapid filtration (Brandell 24 well cell harvester) over Whatman GF/C filters, washing 3 x 4 mls with ice-cold 100 Mm NaCl. The radioactivity on the filters was counted with a LKB gamma counter.
(§1) Drug displacement studies were performed with at least 10 concentrations of compounds of Formula I and the IC₅₀ values were determined by regression analysis IC₅₀ refers to the concentration of the compound required to inhibit 50% of specific binding of ¹²⁵I-CCK-8.

Test [1] has as its target T2, CCK receptor (brain, cortex) (Cavia porcellus, UniProt H0VZC5).
T2 construct: the cortex was removed and homogenized in 25 mL ice-cold 0.32 M sucrose; from tissue; host or cells: guinea pig brain cortex P2 membrane pellet
T2 sequence (H0VZC5 1-426): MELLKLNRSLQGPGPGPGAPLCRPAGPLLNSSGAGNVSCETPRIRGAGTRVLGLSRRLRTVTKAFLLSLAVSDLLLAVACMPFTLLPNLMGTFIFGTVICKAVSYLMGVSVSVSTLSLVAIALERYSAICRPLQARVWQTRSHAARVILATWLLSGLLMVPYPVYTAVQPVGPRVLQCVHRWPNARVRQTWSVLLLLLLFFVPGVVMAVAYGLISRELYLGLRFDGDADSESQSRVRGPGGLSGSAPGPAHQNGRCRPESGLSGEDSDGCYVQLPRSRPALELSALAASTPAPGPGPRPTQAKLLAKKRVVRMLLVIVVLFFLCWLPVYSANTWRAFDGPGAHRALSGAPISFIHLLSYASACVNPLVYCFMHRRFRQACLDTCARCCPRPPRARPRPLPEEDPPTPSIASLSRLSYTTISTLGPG
The experiment in a line: biochemical. Format: binding, guinea pig. On the procedure:
CCK-8 sulphated was radiolabelled and the binding was performed according to the description for the pancreas method with minor modifications.
Male Hartley guinea pigs (300-500g) were sacrificed by decapitation and the cortex was removed and homogenized in 25 mL ice-cold 0.32 M sucrose. The homogenates were centrifuged at 1000 g for 10 minutes and the resulting supernatant was recentrifuged at 20,000 g for 20 minutes. The P₂ pellet was resuspended in binding assay buffer (20mM HEPES, 5 mM MgCl₂, 0.25 mg/ml bacitracin, 1 mM EGTA pH 6.5 at 25°C), using a Teflon (trademark) homogenizer (5 strokes at 500 rpm) to give a final concentration of 10 mg original wet weight/1.2 ml buffer. […] All assays were run in duplicate. The reaction mixtures were incubated at 25°C for 2 hours and then the reaction was terminated by rapid filtration (Brandell 24 well cell harvester) on Whatman GF/C filters with 3 x 5 ml washes of cold 100 mM NaCl. The radioactivity on the filters was counted with a LKB gamma counter.
as §1

The mark [2] stands for this setting: guinea pig cortex membranes, 50 pM 125I-CCK-8, 25°C 2 hours, read-out: IC50 ^125I-CCK Brain.

Where two headings read alike, the source gives them in different places.

One may read the inhibition as the percentage by which the read-out fell short of the control. In general, IC50 refers to the concentration that gives 50% inhibition.

`CC(C)CN1C(=O)C(NC(=O)Nc2cccc(-c3nn[nH]n3)c2)N=C(C2CCCCC2)c2ccccc21` (racemic) [Example 2, N-[3(R,S)-5-Cyclohexyl-2,3-dihydro-1-(2-methylpropyl)-2-oxo-1H-1,4-benzodiazepin-3-yl] N′-[3-tetrazol-5-ylphenyl] urea]: the inhibition at 3 µM at CCK receptor (pancreas) (at 3μM, read-out: inhibition of ^125I-CCK binding, Pancreas) was roughly 27%. The IC50 in test [1] (setting [2]) came to 0.42 nM.
As for `CC(C)CN1C(=O)C(NC(=O)Nc2cccc(-c3nn[nH]n3)c2)N=C(C2CCCC2)c2ccccc21` (racemic) [Example 3, N-[3(R,S)-5-Cyclopentyl-2,3-dihydro-1-(2-methylpropyl)-2-oxo-1H-1,4-benzodiazepin-3-yl] N′-[3-tetrazol-5-ylphenyl]urea], the values for the concentration for half-maximal inhibition (IC50) (at CCK receptor (pancreas); in test [1] (setting [2])) were 800 nM and 0.3 nM, respectively.
On to `CCN1C(=O)C(NC(=O)Nc2cccc(-c3nn[nH]n3)c2)N=C(C2CCCC2)c2ccccc21` (racemic) [Example 5, N-[3(R,S)-5-Cyclopentyl-2,3-dihydro-1-ethyl-2-oxo-1H-1,4-benzodiazepin-3-yl] N′-[3-tetrazol-5-ylphenyl]urea], for which the IC50 is 140 nM at CCK receptor (pancreas) and 0.71 nM in test [1] (setting [2]).
For `CCCN1C(=O)C(NC(=O)Nc2cccc(-c3nn[nH]n3)c2)N=C(C2CCCC2)c2ccccc21` (racemic) [Example 6, N-[3(R,S)-5-Cyclopentyl-2,3-dihydro-1-propyl-2-oxo-1H-1,4-benzodiazepin-3-,yl] N′-[3-tetrazol-5-ylphenyl] urea], in that order: 1100 nM and 0.96 nM.
In the case of `CN1C(=O)C(NC(=O)Nc2cccc(-c3nn[nH]n3)c2)N=C(C2CCCC2)c2ccccc21` (racemic) [Example 8, N-[3(R,S)-5-Cyclopentyl-2,3-dihydro-1-methyl-2-oxo-1H-1,4-benzodiazepin-3-yl] N′-[3-tetrazol-5-ylphenyl] urea], the IC50 on CCK receptor (pancreas) was 56 nM; in test [1] (setting [2]) it was 1.6 nM.
For the compound `CN1C(=O)C(NC(=O)Nc2cccc(C(=O)O)c2)N=C(C2CCCCC2)c2ccccc21` (racemic) [Example 10, N-[3(R,S)-5-Cyclohexyl-2,3-dihydro-1-methyl-2-oxo-1H-1,4-benzodiazepin-3-yl] N′-[3-carboxyphenyl] urea], the IC50 against CCK receptor (pancreas) amounted to 3.1 nM; in test [1], 1.4 nM.
As for `CC(C)C(=O)NS(=O)(=O)c1cccc(NC(=O)NC2N=C(C3CCCCC3)c3ccccc3N(C)C2=O)c1` (racemic) [Example 11, N-[3(R,S)-5-Cyclohexyl-2,3-dihydro-1-methyl-2-oxo-1H-1,4-benzodiazepin-3-yl] N′-(3-(isopropylcarbonylaminosulphonyl)phenyl] urea], the values for the IC50 (against CCK receptor (pancreas); in test [1] (setting [2])) were 118 nM and 0.32 nM, respectively.
Take `CN1C(=O)C(NC(=O)Nc2cccc(S(=O)(=O)NC(=O)c3ccccc3)c2)N=C(C2CCCCC2)c2ccccc21` (racemic) [Example 13, N-(3(R,S)-5-Cyclohexyl-2,3-dihydro-1-methyl-2-oxo-1H-1,4-benzodiazepin-3-yl] N′-[3-(phenylcarbonylaminosulphonyl)phenyl] urea]: at CCK receptor (pancreas), the midpoint of inhibition, the IC50, lay at 738 nM.
`CN1C(=O)C(NC(=O)Nc2cccc(C(=O)NS(=O)(=O)c3ccccc3)c2)N=C(C2CCCCC2)c2ccccc21` (racemic) [Example 14, N-[3(R,S)-5-Cyclohexyl-2,3-dihydro-1-methyl-2-oxo-1H-1,4-benzodiazepin-3-yl] N′-[3-(phenylsulphonylaminocarbonyl)phenyl] urea]: the half-inhibitory concentration (IC50) against CCK receptor (pancreas) is 11.1 nM; in test [1] (setting [2]), 0.58 nM.
Regarding `CN1C(=O)C(NC(=O)Nc2cccc(C(=O)NS(C)(=O)=O)c2)N=C(C2CCCCC2)c2ccccc21` (racemic) [Example 16, N-(3(R,S)-5-Cyclohexyl-2,3-dihydro-1-methyl-2-oxo-1H-1,4-benzodiazepin-3-yl] N′-[3-(methylsulphonylaminocarbonyl)phenyl] urea], inhibition against CCK receptor (pancreas) was half-maximal at 2 nM (IC50).
In the case of `CN1C(=O)C(NC(=O)Nc2cccc(C(=O)NS(=O)(=O)C(F)(F)F)c2)N=C(C2CCCCC2)c2ccccc21` (racemic) [Example 18, N-[3(R,S)-5-Cyclohexyl-2,3-dihydro-1-methyl-2-oxo-1H-1,4-benzodiazepin-3-,yl] N′-[3-(trifluoromethylsulphonylaminocarbonyl)phenyl] urea], the IC50 turned out to be 13.8 nM at CCK receptor (pancreas) and 0.09 nM in test [1] (setting [2]).
On to `CC(C)CN1C(=O)C(NC(=O)Nc2cccc(C(=O)NS(C)(=O)=O)c2)N=C(C2CCCCC2)c2ccccc21` (racemic) [Example 19, N-(3(R,S)-5-Cyclohexyl-2,3-dihydro-1-(2-methylpropyl)-2-oxo-1H-1,4-benzodiazepin-3-yl] N′-[3-(methylsulphonylaminocarbonyl)phenyl] urea], for which the values for the IC50 (against CCK receptor (pancreas); in test [1] (setting [2])) were 570 nM and 12 nM, respectively.
Consider `CN1C(=O)C(NC(=O)Nc2cccc(S(=O)(=O)Nc3nncs3)c2)N=C(C2CCCCC2)c2ccccc21` (racemic) [Example 21, N-[3(R,S)-5-Cyclohexyl-2,3-dihydro-1-methyl-2-oxo-1H-1,4-benzodiazepin-3-yl] N′-[3-(1,3,4-thiadiazol-2-ylaminosulphonyl)phenyl]urea], for which the results for the IC50 (against CCK receptor (pancreas); in test [1] (setting [2])) were 9.7 nM and 1.2 nM, respectively.
As for `CCS(=O)(=O)NC(=O)c1cccc(NC(=O)NC2N=C(C3CCCCC3)c3ccccc3N(C)C2=O)c1` (racemic) [Example 23, N-[3(R,S)-5-Cyclohexyl-2,3-dihydro-1-methyl-2-oxo-1H-1,4-benzodiazepin-3-yl] N′-[3-(ethylsulphonylaminocarbonyl)phenyl]urea], the IC50 against CCK receptor (pancreas) amounted to 5 nM; in test [1] (setting [2]), 0.96 nM.
`CN1C(=O)C(NC(=O)Nc2cccc(C(=O)NS(=O)(=O)c3ccccc3)c2)N=C(C2CCCC2)c2ccccc21` (racemic) [Example 40, N-[3(R,S)-5-Cyclopentyl-2,3-dihydro-1-methyl-2-oxo-1H-1,4-benzodiazepin-3-yl] N′-[3-(phenylsulphonylaminocarbonyl)phenyl] urea]: the midpoint of inhibition on CCK receptor (pancreas), the IC50, lay at 310 nM.
On to `Cc1cccc(NC(=O)NC2N=C(C3CCCCC3)c3ccccc3N(C)C2=O)c1` (single isomer, unassigned) [7 (Peak B)], for which the IC50 in test [1] (setting [2]) amounted to 100 nM.
`CC(C)S(=O)(=O)NC(=O)c1cccc(NC(=O)NC2N=C(C3CCCCC3)c3ccccc3N(C)C2=O)c1` (single isomer, unassigned) [24 (Peak B)] showed an IC50 against CCK receptor (pancreas) of 5 nM.
In the case of `Cc1ccccc1S(=O)(=O)NC(=O)c1cccc(NC(=O)N[C@@H]2N=C(C3CCCCC3)c3ccccc3N(C)C2=O)c1` [Example 33, N-[3(R)-5-Cyclohexyl-2,3-dihydro-1-methyl-2-oxo-1H-1,4-benzodiazepin-3-yl] N′-[3-(2-methylphenylsulphonylaminocarbonyl)phenyl] urea], at CCK receptor (pancreas), the IC50 is 1600 nM.

(Values after patent EP0514133A1, “Benzodiazepine derivatives, compositions containing them and their use in therapy” (priority 1991, dated 1992).)
